Assays:
[1] = biological target: human adenosine A3 receptor (Homo sapiens (Human), UniProt P0DMS8); assay: Adenosine receptor binding assay ([125I]-AB-MECA competition); details: inhibition of 0.15 nM [125I]-AB-MECA binding, membranes of cells expressing human A3 receptor; read-out: hA3 Ki: Ki
Source text: Example 30: Adenosine Receptor Binding Assay
Materials and Reference Compounds: [^125I]-AB-MECA and [^3H]CCPA are both obtained from Amersham Biosciences (Little Chalfont, UK). IB-MECA are obtained from Tocris (Bristol, UK) and N6-cyclopentyl adenosine (CPA) is obtained from Sigma-Alrich (Poole, UK). Cell culture media, G418 and hygromycin are obtained from Invitrogen (Paisley, UK). Fetal calf serum is obtained from Perbio Science (Cheshire, UK). All other reagents are obtained from Fisher Chemicals (Loughborough, UK).
The method followed is that of Yates L, Clark J H, Martin T J, James S, Broadley K J, Kidd E J. Radioligand binding and functional responses of ligands for human recombinant adenosine A3 receptors. Auton Autacoid Pharmacol. 2006; 26(2):191-200. Cells stably transfected with the human adenosine A3 or A1 receptor are grown in Dulbecco's modified Eagles medium with nutrient mixture F12 containing NaHCO3 and Glutamax. Media is supplemented with 10% fetal calf serum, geneticin (G418; 0.67 mg/mL), hygromycin (500 μg/mL) and adenosine deaminase (1 U/mL). Cells are maintained at 37° C. with 5% CO2 in air. Cells are harvested and homogenized in ice-cold Tris buffer [50 mM Tris, 150 mM NaCl, 1 mM ethylenediaminetetraacetic acid (EDTA), pH 7.4] supplemented with the peptidase inhibitors, 4-(2-aminoethyl)benzenesulfonylfluoride (1 mM) and bacitracin (0.1 mg/mL), using a Polytron homogenizer (3×10 s bursts). The homogenate was spun for 10 min (4° C.) at 500 g. The supernatant is retained and the pellet is re-suspended in the buffer, homogenized and spun as above. The combined supernatants are centrifuged for 15 min (4° C.) at 48,000 g. The resultant pellet is re-suspended in the buffer and centrifuged for a second time at 48,000 g. The membrane pellet is then suspended in Tris buffer containing no peptidase inhibitors or adenosine deaminase and stored at −80° C. at a protein concentration of 1 mg/mL.
Binding Assays: Radioligand-binding assays were performed using the adenosine A3 receptor agonist [^125I]-AB-MECA and the A1 receptor agonist [^3H]CCPA. Binding assays were conducted in a total volume of 100 μL containing a 50 mM Tris, pH 7.4 buffer with or without 10 mM MgCl2, 20 μg membranes and either 0.15 nM [^125I]-AB-MECA (for the A3 receptor) or 1 nM [^3H]CCPA (for the A1 receptor). Assays were conducted at room temperature for 60 min (A1 receptor) or 120 min (A3 receptor) and terminated by the addition of 2 ml of ice-cold wash buffer (50 mM Tris, pH 7.4 with or without 10 mM MgCl2) and rapid filtration over 0.03% polyethylenimine-treated Whatman GF/C filters using a Brandel cell harvester (Semat International Ltd., St Albans, UK). Filters were then washed three times with 2 ml of ice-cold buffer. The filter-bound radioactivity were counted using a Compugamma counter (LKB Wallac, Turku, Finland). Competition experiments were performed to investigate the ability of reference compounds and embodiments of the invention to inhibit [^125I]-AB-MECA binding. Non-specific binding were determined using the respective compound at its highest concentration.
Data Analysis: The Kd and Bmax values for binding data were calculated based upon the molar amounts of bound and free [^125I]-AB-MECA. […] IC50 and Ki values and Hill slopes for inhibition of the radioligand binding by the compounds of the invention were calculated from the ligand competition curves using the Excel spreadsheet and the Kd value calculated for either [^125I]-AB-MECA or [^3H]CCPA. The results were expressed as a percent of control specific binding and as a percent inhibition of control specific binding obtained in the presence of the compounds of the invention. The IC50 values (concentration causing a half-maximal inhibition of control specific binding) and Hill coefficients (nH) were determined by non-linear regression analysis of the competition curves generated with mean replicate values using Hill equation curve fitting: […]

ADORA3 = ADORA3 (Homo sapiens (Human), UniProt P0DMS8); assay: Intracellular calcium release assay (FLIPR); format: cell-based; details: for EC50: CHO-K1 cells, Fluo-4, top concentration 10 μM, read-out: Cell Calcium Assay EC50; for Cell Calcium Efficacy (%): percentage of the response to NECA
Sequence of ADORA3 (P0DMS8 whole entry): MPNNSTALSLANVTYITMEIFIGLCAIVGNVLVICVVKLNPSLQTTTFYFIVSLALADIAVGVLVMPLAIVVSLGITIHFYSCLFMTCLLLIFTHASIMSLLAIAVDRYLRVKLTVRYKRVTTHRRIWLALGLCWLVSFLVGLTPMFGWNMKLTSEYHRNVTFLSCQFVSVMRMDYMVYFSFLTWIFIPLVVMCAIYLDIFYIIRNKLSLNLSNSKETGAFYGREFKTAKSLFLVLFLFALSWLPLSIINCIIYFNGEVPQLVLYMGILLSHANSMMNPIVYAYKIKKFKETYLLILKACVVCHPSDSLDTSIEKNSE
Protocol: Example 32: Intracellular Calcium Release Assay
Cell Culture: The table below lists the cell lines used that stably express the 4 subtypes of adenosine receptors, along with the growth medium used for each:
For experiments with the ADORA1- and ADORA3-expressing cells, the medium was aspirated and the cells washed twice with 10 mL DPBS. Two mL of trypsin was added and incubated at 37° C. for 1 minute. Then 10 mL of platting media was added to terminate the digestion and 1 mL of the solution was taken out for cell counting. ADORA2A- and ADORA2B-expressing cells were thawed rapidly in a 37° C. water bath. Cell suspensions were transferred to 50 mL conical tubes. Plating media was added to the 10 mL mark and then 1 mL taken out for cell counting. The 50 mL tubes containing the various types of cells were centrifuged at 1000 g. Then the supernatants were aspirated, being careful not to aspirate the cells. The cell pellets were resuspended in 3-5 mL platting media, then 0.5 mL was taken out for cell counting. Then the cell suspension was diluted to 1×10^6 cells/mL (20,000 cells per 20 μL per well) in platting medium, and cells were seeded into 384-well cell plates (Greiner-781946). The 384-well cell plate was placed in a 37° C./5% CO2 incubator (Thermo-371, Thermo Scientific) for 16-20 hours.
Preparation of the intracellular calcium imaging agent (Fluo-4 Direct™ Calcium Assay Kit, Invitrogen-F10471, Thermo Scientific): One mL of FLIPR Assay Buffer was added to 77 mg probenecid to make a 250 mM solution, which was used fresh for each day. One vial of Fluo-4 Direct™ crystals was thawed and 10 mL of FLIPR Assay Buffer was added to the vial. 0.2 mL of probenecid was added to each 10 mL vial of Fluo-Direct™ solution, such that the final assay concentration was 2.5 mM. It was vortexed, left to stand >5 min and protected from light. The dye was prepared fresh each day.
Compound Preparation: Compound plates were prepared as follows. First, the test compound was diluted to prepare a 2 mM solution and then 10-point 3-fold serial dilutions were made using ECHO (ECHO 555, LabCyte), then 900 nL was transferred to the compound plate. For all targets, the final top concentration of the test compound was […]. For agonist reference compounds, 10-point and 3-fold serial dilutions were made, then 900 nL was transferred to the assay plate. Then 30 μL of assay buffer was added to the compound plate and then the plate was centrifuged at 1000 rpm for 1 min.
FLIPR Assay: Cell plates were removed from the incubator, to which were added 20 μL 2×Fluo-4 Direct™ solution, then the plates were reincubated in a 5% CO2, 37° C. incubator for 50 min and at RT for 10 min. To run the protocol on the Fluorescent Imaging Plate Reader (FLIPR) TETRA (MD-FT0249, Molecular Devices, Inc.), 10 μL of assay buffer was transferred from the 384-well plate (Greiner-781280) to the cell plates and then the fluorescence signal was read. Then 10 μL of compound solution was transferred from the compound plate to the cell plates and the fluorescence signal was read. The “Max-Min” was calculated, starting from Read 91 to the maximum allowed. For agonists, activation %=(RLU−LC)/(HC−LC)*100, based on the following: RLU=relative light unit, 91 to maximum allowed signal; HC=average signal of the high concentration of agonist; LC=average signal of DMSO well. The data were fitted using GraphPad Prism 5, using the model “log(agonist) vs. response—Variable slope” to determine the EC50 value. The receptor efficacy of the test compound relative to the agonist NECA was calculated as a percentage (%) of the response to […]. Table 10 includes EC50 values for compounds described herein.

Sequence of human adenosine A3 receptor (P0DMS8 whole entry): as above

## CNC(=O)[C@@]12C[C@@H]1[C@@H](n1cnc3c(NCC(F)F)cc(Cl)nc31)[C@H](O)[C@@H]2O [Compound 82]
[1]
  Ki: 4.77 nM
ADORA3
  EC50: 1.9 nM
  Cell Calcium Efficacy (%): 106%

## O[C@@H]1[C@H](O)[C@@H]2C[C@@H]2[C@H]1n1cnc2c(NCC(F)F)c(F)c(Cl)nc21 [Compound 61, (1R,2R,3S,4R,5S)-4-(5-chloro-7-((2,2-difluoroethyl)amino)-6-fluoro-3H-imidazo[4,5-b]pyridin-3-yl)bicyclo[3.1.0]hexane-2,3-diol]
[1]
  Ki: 7.15 nM
ADORA3
  EC50: 60 nM
  Cell Calcium Efficacy (%): 67.3%

## O[C@@H]1[C@H](O)[C@@H]2C[C@@H]2[C@H]1n1cnc2c(NCC3CCC3)cc(Cl)nc21 [Compound 67, (1R,2R,3S,4R,5S)-4-(5-chloro-7-((cyclobutylmethyl)amino)-3H-imidazo[4,5-b]pyridin-3-yl)bicyclo[3.1.0]hexane-2,3-diol]
[1]
  Ki: 94.4 nM

## CNC(=O)C12C[C@@H]1[C@@H](n1cnc3c(NCC4CCC4)cc(Cl)nc31)[C@H](O)[C@@H]2O (stereo in doubt) [Compound 65, (1S,2R,3S,4R,5S)-4-(5-chloro-7-((cyclobutylmethyl)amino)-3H-imidazo[4,5-b]pyridin-3-yl)-2,3-dihydroxy-N-methylbicyclo[3.1.0]hexane-1-carboxamide]
[1]
  Ki: 3.49 nM

## O[C@@H]1[C@H](O)[C@@H]2C[C@@H]2[C@H]1n1cnc2c(NC3CCC3)cc(Cl)nc21 [Compound 44, (1R,2R,3S,4R,5S)-4-(5-chloro-7-(cyclobutylamino)-3H-imidazo[4,5-b]pyridin-3-yl)bicyclo[3.1.0]hexane-2,3-diol]
[1]
  Ki: 28.4 nM
ADORA3
  EC50: 23.1 nM
  Cell Calcium Efficacy (%): 52%

## CCNc1c(Cl)c(Cl)nc2c1ncn2[C@H]1[C@H](O)[C@H](O)[C@@H]2C[C@@H]21 [Compound 71, (1R,2R,3S,4R,5S)-4-(5,6-dichloro-7-(ethylamino)-3H-imidazo[4,5-b]pyridin-3-yl)bicyclo[3.1.0]hexane-2,3-diol]
[1]
  Ki: 456 nM

## Nc1c(OCc2cccc(Cl)c2)c(Cl)nc2c1ncn2[C@H]1[C@H](O)[C@H](O)[C@@H]2C[C@@H]21 [Compound 92, (1R,2R,3S,4R,5S)-4-(7-amino-5-chloro-6-((3-chlorobenzyl)oxy)-3H-imidazo[4,5-b]pyridin-3-yl)bicyclo[3.1.0]hexane-2,3-diol]
[1]
  Ki: 26.8 nM

## CCCNc1cc(Cl)nc2c1ncn2[C@H]1[C@H](O)[C@H](O)[C@@H]2C[C@@H]21 [Compound 66]
[1]
  Ki: 126 nM

## O[C@@H]1[C@H](O)[C@@H]2C[C@@H]2[C@H]1n1cnc2c(NCc3cc(F)ccc3F)cc(Cl)nc21 [Compound 45, (1R,2R,3S,4R,5S)-4-(5-chloro-7-((2,5-difluorobenzyl)amino)-3H-imidazo[4,5-b]pyridin-3-yl)bicyclo[3.1.0]hexane-2,3-diol]
[1]
  Ki: 1.3 nM
ADORA3
  EC50: 29.5 nM
  Cell Calcium Efficacy (%): 22.5%
